Data: patent US20070128217A1 (priority 2003, published 2007)

What was measured:
[1] = test system: control sera (pooled serum of ten healthy LUMC hospital workers; commercial negative donor pooled serum from the Dutch bloodbank); type: binding, human; design: Binding of Control serum LUMC to linear peptides / Binding of Control serum Blood-bank to linear peptides / Binding of Control serum LUMC to looped peptides / Binding of Control Serum Blood-Bank to Looped peptides / Binding of Control serum LUMC to linear peptides of the protein M of SARS-CoV Urbani / Binding of Control serum Blood-bank to linear peptides of the protein M of SARS-CoV Urbani / Binding of Control serum LUMC to looped peptides of the protein M of SARS-CoV Urbani / Binding of Control Serum Blood-Bank to Looped peptides of the protein M of SARS-CoV Urbani: unit not given here
[2] = test system: antibodies in sera from SARS patients (sera 1a, 1b, 2, 6, 37, 62, London, SARS-yellow, SARS-green); type: binding, human; design: Binding of serum 6 to linear peptides of protein X1 of SARS-CoV Urbani / Binding of serum 37 to linear peptides of protein X1 of SARS-CoV Urbani / Binding of serum 6 to looped/cyclic peptide (PEPSCAN-ELISA) / Binding of serum 37 to looped/cyclic peptide (PEPSCAN-ELISA) / Binding of serum 37 to looped/cyclic peptides of protein X1 of SARS-CoV Urbani / Binding of serum 6 to linear peptides of protein X2 / Binding of serum 37 to linear peptides of protein X2 / Binding of serum 37 to looped/cyclic peptides of protein X2 of SARS-CoV Urbani / Binding of serum 6 to linear peptides of protein M of SARS-CoV Urbani / Binding of serum 37 to linear peptides of protein M of SARS-CoV Urbani / Binding of serum 6 to looped/cyclic peptides of protein M of SARS-CoV Urbani / Binding of serum 37 to looped/cyclic peptides of protein M of SARS-CoV Urbani / Binding of serum 6 to linear peptides of protein X3 of SARS-CoV Urbani / Binding of serum 37 to linear peptides of protein X3 of SARS-CoV Urbani / Binding of serum 37 to looped/cyclic peptides of protein X3 of SARS-CoV Urbani / Binding of serum 6 to linear peptides of protein X4 of SARS-CoV Urbani / Binding of serum 37 to linear peptides of protein X4 of SARS-CoV Urbani / Binding of serum 37 to looped/cyclic peptides of protein X4 of SARS-CoV Urbani / Binding of serum 6 to linear peptides of protein X5 of SARS-CoV Urbani / Binding of serum 37 to linear peptides of protein X5 of SARS-CoV Urbani / Binding of serum 37 to looped/cyclic peptides of protein X5 of SARS-CoV Urbani / Binding of serum 6 to linear peptides of protein N of SARS-CoV Urbani / Binding of serum 37 to linear peptides of protein N of SARS-CoV Urbani / Binding of serum 6 to linear peptide (PEPSCAN-ELISA) / Binding of serum 1a to looped/cyclic peptides of protein N of SARS-CoV Urbani / Binding of serum 1b to looped/cyclic peptides of protein N of SARS-CoV Urbani / Binding of serum 2 to looped/cyclic peptides of protein N of SARS-CoV Urbani / Binding of serum 6 to looped/cyclic peptides of protein N of SARS-CoV Urbani / Binding of serum 37 to looped/cyclic peptides of protein N of SARS-CoV Urbani / Binding of serum 62 to looped/cyclic peptides of protein N of SARS-CoV Urbani / Binding of serum London to looped/cyclic peptides of protein N of SARS-CoV Urbani / Binding of serum SARS-green to looped/cyclic peptides of protein N of SARS-CoV Urbani: unit not given here
[3] = test system: rabbit serum obtained by immunizing a rabbit with the SARS-CoV strain Frankfurt 1; type: binding; design: Binding of a rabbit serum to linear peptides / Binding of a rabbit serum to looped peptides / Rabbit serum linear peptides / Rabbit serum looped peptides / Binding of a rabbit serum to linear peptides of protein N of SARS-CoV Urbani (Rabbit serum linear peptides) / Binding of a rabbit serum to looped/cyclic peptides of protein N of SARS-CoV Urbani (Rabbit serum looped peptides): unit not given here

## GNTYSTAWLCALGKV
[1]
  Binding of Control Serum Blood-Bank to Looped peptides: 0.4
  Binding of Control serum Blood-bank to linear peptides: 0.9
  Binding of Control serum LUMC to linear peptides: 0.5
  Binding of Control serum LUMC to looped peptides: 0.6
[2]
  Binding of serum 1a to linear peptides of protein X5 of SARS-CoV Urbani: 0.8
  Binding of serum 1a to looped/cyclic peptides of protein X5 of SARS-CoV Urbani: 0.4
  Binding of serum 1b to linear peptides of protein X5 of SARS-CoV Urbani: 0.6
  Binding of serum 1b to looped/cyclic peptides of protein X5 of SARS-CoV Urbani: 0.2
  Binding of serum 2 to linear peptides of protein X5 of SARS-CoV Urbani: 0.9
  Binding of serum 2 to looped/cyclic peptides of protein X5 of SARS-CoV Urbani: 0.5
  Binding of serum 6 to linear peptides of protein X5 of SARS-CoV Urbani: 0.6
  Binding of serum 6 to looped/cyclic peptides of protein X5 of SARS-CoV Urbani: 0.3
  Binding of serum 37 to linear peptides of protein X5 of SARS-CoV Urbani: 0.7
  Binding of serum 37 to looped/cyclic peptides of protein X5 of SARS-CoV Urbani: 0.5
  Binding of serum 62 to linear peptides of protein X5 of SARS-CoV Urbani: 0.8
  Binding of serum 62 to looped/cyclic peptides of protein X5 of SARS-CoV Urbani: 0.7
  Binding of serum London to linear peptides of protein X5 of SARS-CoV Urbani: 0.7
  Binding of serum London to looped/cyclic peptides of protein X5 of SARS-CoV Urbani: 0.2
  Binding of serum SARS-green to linear peptides of protein X5 of SARS-CoV Urbani: 0.6
  Binding of serum SARS-green to looped/cyclic peptides of protein X5 of SARS-CoV Urbani: 0.3
  Binding of serum SARS-yellow to linear peptides of protein X5 of SARS-CoV Urbani: 0.4
  Binding of serum SARS-yellow to looped/cyclic peptides of protein X5 of SARS-CoV Urbani: 0.5
[3]
  Rabbit serum linear peptides: 0.9
  Rabbit serum looped peptides: 0.6

## GTDSGFAAYNRYRIG
[1]
  Binding of Control Serum Blood-Bank to Looped peptides of the protein M of SARS-CoV Urbani: 0.6
  Binding of Control serum Blood-bank to linear peptides of the protein M of SARS-CoV Urbani: 0.7
  Binding of Control serum LUMC to linear peptides of the protein M of SARS-CoV Urbani: 0.5
  Binding of Control serum LUMC to looped peptides of the protein M of SARS-CoV Urbani: 0.7
[2]
  Binding of serum 1a to linear peptides of protein M of SARS-CoV Urbani: 0.6
  Binding of serum 1a to looped/cyclic peptides of protein M of SARS-CoV Urbani: 0.8
  Binding of serum 1b to linear peptides of protein M of SARS-CoV Urbani: 0.4
  Binding of serum 1b to looped/cyclic peptides of protein M of SARS-CoV Urbani: 0.5
  Binding of serum 2 to linear peptides of protein M of SARS-CoV Urbani: 0.4
  Binding of serum 2 to looped/cyclic peptides of protein M of SARS-CoV Urbani: 0.6
  Binding of serum 6 to linear peptides of protein M of SARS-CoV Urbani: 0.7
  Binding of serum 6 to looped/cyclic peptides of protein M of SARS-CoV Urbani: 0.8
  Binding of serum 37 to linear peptides of protein M of SARS-CoV Urbani: 0.6
  Binding of serum 37 to looped/cyclic peptides of protein M of SARS-CoV Urbani: 0.7
  Binding of serum 62 to linear peptides of protein M of SARS-CoV Urbani: 0.5
  Binding of serum 62 to looped/cyclic peptides of protein M of SARS-CoV Urbani: 0.6
  Binding of serum London to linear peptides of protein M of SARS-CoV Urbani: 0.3
  Binding of serum London to looped/cyclic peptides of protein M of SARS-CoV Urbani: 0.3
  Binding of serum SARS-green to linear peptides of protein M of SARS-CoV Urbani: 0.4
  Binding of serum SARS-green to looped/cyclic peptides of protein M of SARS-CoV Urbani: 0.4
  Binding of serum SARS-yellow to linear peptides of protein M of SARS-CoV Urbani: 0.2
  Binding of serum SARS-yellow to looped/cyclic peptides of protein M of SARS-CoV Urbani: 0.9
[3]
  Rabbit serum linear peptides: 0.2
  Rabbit serum looped peptides: 0.4

## HGYFTEVYYQLESTQ
[1]
  Binding of Control Serum Blood-Bank to Looped peptides: 0.5
  Binding of Control serum Blood-bank to linear peptides: 0.4
  Binding of Control serum LUMC to linear peptides: 0.3
  Binding of Control serum LUMC to looped peptides: 0.5
[2]
  Binding of serum 1a to linear peptides of protein X1 of SARS-CoV Urbani: 0.6
  Binding of serum 1a to looped/cyclic peptides of protein X1 of SARS-CoV Urbani: 0.5
  Binding of serum 1b to linear peptides of protein X1 of SARS-CoV Urbani: 0.4
  Binding of serum 1b to looped/cyclic peptides of protein X1 of SARS-CoV Urbani: 0.4
  Binding of serum 2 to linear peptides of protein X1 of SARS-CoV Urbani: 0.4
  Binding of serum 2 to looped/cyclic peptides of protein X1 of SARS-CoV Urbani: 0.4
  Binding of serum 6 to linear peptides of protein X1 of SARS-CoV Urbani: 0.3
  Binding of serum 6 to looped/cyclic peptides of protein X1 of SARS-CoV Urbani: 0.3
  Binding of serum 37 to linear peptides of protein X1 of SARS-CoV Urbani: 0.4
  Binding of serum 37 to looped/cyclic peptides of protein X1 of SARS-CoV Urbani: 0.5
  Binding of serum 62 to linear peptides of protein X1 of SARS-CoV Urbani: 0.4
  Binding of serum 62 to looped/cyclic peptides of protein X1 of SARS-CoV Urbani: 0.5
  Binding of serum London to linear peptides of protein X1 of SARS-CoV Urbani: 0.2
  Binding of serum London to looped/cyclic peptides of protein X1 of SARS-CoV Urbani: 0.2
  Binding of serum SARS-green to linear peptides of protein X1 of SARS-CoV Urbani: 0.2
  Binding of serum SARS-green to looped/cyclic peptides of protein X1 of SARS-CoV Urbani: 0.3
  Binding of serum SARS-yellow to linear peptides of protein X1 of SARS-CoV Urbani: 0.0
  Binding of serum SARS-yellow to looped/cyclic peptides of protein X1 of SARS-CoV Urbani: 0.4
[3]
  Binding of a rabbit serum to linear peptides: 0.1
  Binding of a rabbit serum to looped peptides: 0.5
